Data reported in US20260356856A1, “KRAS G12S AND G12C INHIBITORS” (MIRATI THERAPEUTICS, INC., priority 2023, published 2026).

Legend:
[1] = target: T1, KRas G12C (Homo sapiens, UniProt P01116, G12C); assay: KRas binding assay, TR-FRET displacement of Cy5 labelled tracer; conditions: 60-minute incubation at room temperature, 1% DMSO, pH 7.5
T1 construct: Biotinylated KRas (corresponding to amino acids 1-169, produced at Accelegan Inc.); biotin (biotinylated); purchased Accelegan Inc
Procedure, shortened: (§1)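 Tb-streptavidin captured biotinylated KRas (1-169) in HEPES 50 mM, DTT 1 mM, MgCl2 5 mM, Tween-20 0.005% (pH 7.5), alongside tracer and compound at 1% final DMSO. One hour at RT, then read; IC50 from 4-parameter POC fit.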

[2] = target: T2, KRas G12S (Homo sapiens, UniProt P01116, G12S); assay: as above; conditions: 60-minute incubation at room temperature, 1% DMSO, pH 7.5
T2 construct: Biotinylated KRas (corresponding to amino acids 1-169, produced at Accelegan Inc.); biotin (biotinylated); purchased Accelegan Inc
Procedure, shortened: as §1

[3] = target: T3, KRas WT (Homo sapiens, UniProt P01116); assay: as above; conditions: 60-minute incubation at room temperature, 1% DMSO, pH 7.5
T3 construct: Biotinylated KRas (corresponding to amino acids 1-169, produced at Accelegan Inc.); biotin (biotinylated); purchased Accelegan Inc
Procedure, shortened: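 Biotinylated KRas (residues 1-169) was incubated with tracer, terbium-streptavidin and compound at 1% DMSO final in 50 mM HEPES pH 7.5 containing 5 mM MgCl2, 0.005% Tween-20 and 1 mM DTT. The plate was read after 60 min at room temperature, and percent-of-control data were fit to a 4-parameter IC50 equation.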

[4] = target: T4, KRas-mediated phosphorylation of ERK in MKN1 cells (Homo sapiens, UniProt P01116); assay: Inhibition of KRas-mediated phosphorylation of ERK (HTRF), MKN1 cells; format: cell-based; conditions: MKN1 cells (KRas WT); HTRF pERK; 3 h incubation
T4 construct: pERK HTRF read-out
Experimental: Inhibition of KRas Phosphorylation of ERK (HTRF) by Exemplary Compounds of Formula (Ia) or (Ib)
Cisbio HTRF Advanced pERK Assay Catalog #64AERPEH • Cells: MKN1, PSN1 • Procedure: • 1. Day 1: Seed 6,000 cells/well −25 μl/well in 384-well white solid bottom plate; RPM1_10% FBS. Incubate overnight at 37 °C/5% CO2. • 2.

[5] = target: T5, KRas-mediated phosphorylation of ERK in A549 cells (Homo sapiens, UniProt P01116, G12S); assay: Inhibition of KRas-mediated phosphorylation of ERK (HTRF), A549 cells; format: cell-based; conditions: HTRF pERK, 3 h incubation
T5 construct: pERK HTRF read-out
T5 sequence (P01116 1-188 isoform P01116-2 G12S): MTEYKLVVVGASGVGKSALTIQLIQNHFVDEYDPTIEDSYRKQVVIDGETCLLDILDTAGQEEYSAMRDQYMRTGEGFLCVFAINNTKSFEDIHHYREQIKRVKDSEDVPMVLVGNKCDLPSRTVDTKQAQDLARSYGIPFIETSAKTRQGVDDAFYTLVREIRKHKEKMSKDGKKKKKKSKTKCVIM

T1 sequence (P01116 1-169 isoform P01116-2 G12C): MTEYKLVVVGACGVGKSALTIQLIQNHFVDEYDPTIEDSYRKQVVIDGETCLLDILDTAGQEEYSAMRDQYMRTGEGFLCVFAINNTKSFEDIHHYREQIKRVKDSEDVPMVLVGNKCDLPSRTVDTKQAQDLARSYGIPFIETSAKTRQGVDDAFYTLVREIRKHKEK
T3 sequence (P01116 1-169 isoform P01116-2): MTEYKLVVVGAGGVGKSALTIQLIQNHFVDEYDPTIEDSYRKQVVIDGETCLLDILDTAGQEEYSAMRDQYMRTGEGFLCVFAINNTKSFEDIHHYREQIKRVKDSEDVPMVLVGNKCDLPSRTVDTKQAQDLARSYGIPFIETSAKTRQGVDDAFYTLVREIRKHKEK
T4 sequence (P01116 1-188 isoform P01116-2): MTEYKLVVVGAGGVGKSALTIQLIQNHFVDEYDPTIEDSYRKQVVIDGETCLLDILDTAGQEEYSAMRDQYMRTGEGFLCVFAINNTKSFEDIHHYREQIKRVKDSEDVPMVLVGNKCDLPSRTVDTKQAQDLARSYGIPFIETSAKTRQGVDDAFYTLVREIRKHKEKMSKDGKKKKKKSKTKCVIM
T2 sequence (P01116 1-169 isoform P01116-2 G12S): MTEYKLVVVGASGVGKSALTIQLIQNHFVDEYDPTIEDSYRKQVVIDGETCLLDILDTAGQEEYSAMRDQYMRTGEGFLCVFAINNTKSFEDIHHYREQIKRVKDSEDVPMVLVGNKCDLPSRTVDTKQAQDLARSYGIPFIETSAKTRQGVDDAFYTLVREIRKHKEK

| SMILES | IC50 [1] [nM] | IC50 [2] [nM] | IC50 [3] [nM] | IC50 [4] [nM] | IC50 [5] [nM] |
| --- | --- | --- | --- | --- | --- |
| CCc1c(F)ccc2cc(O)cc(-c3ncc4c(NC[C@@H]5C[C@H]5C(=O)n5ccc(C)n5)nc(OC[C@@]56CCCN5C[C@H](F)C6)nc4c3F)c12 [Example 112, ((1R,2R)-2-(((7-(8-ethyl-7-fluoro-3-hydroxynaphthalen-1-yl)-8-fluoro-2-(((2R,7aS)-2-fluorotetrahydro-1H-pyrrolizin-7a(5H)-yl)methoxy)pyrido[4,3-d]pyrimidin-4-yl)amino)methyl)cyclopropyl)(3-methyl-1H-pyrazol-1-yl)methanone] | 11 | 9 | 19 | 80 | 15 |
| CCc1c(F)ccc2cc(O)cc(-c3ncc4c(N5CCC(CC(=O)n6ccc(C)n6)C5)nc(OC[C@@]56CCCN5C[C@H](F)C6)nc4c3F)c12 (stereo partly drawn) [Example 113, 2-(1-(7-(8-ethyl-7-fluoro-3-hydroxynaphthalen-1-yl)-8-fluoro-2-(((2R,7aS)-2-fluorotetrahydro-1H-pyrrolizin-7a(5H)-yl)methoxy)pyrido[4,3-d]pyrimidin-4-yl)pyrrolidin-3-yl)-1-(3-methyl-1H-pyrazol-1-yl) ethan-1-one] | 137 | 31 | 78 | 3150 | 110 |
| CCc1c(F)ccc2cc(O)cc(-c3ncc4c(N5C[C@@H]6[C@H](C5)[C@@H]6C(=O)n5ccc(C)n5)nc(OC[C@@]56CCCN5C[C@H](F)C6)nc4c3F)c12 [Example 114, ((1R,5S,6R)-3-(7-(8-ethyl-7-fluoro-3-hydroxynaphthalen-1-yl)-8-fluoro-2-(((2R,7aS)-2-fluorotetrahydro-1H-pyrrolizin-7a(5H)-yl)methoxy)pyrido[4,3-d]pyrimidin-4-yl)-3-azabicyclo[3.1.0]hexan-6-yl)(3-methyl-1H-pyrazol-1-yl)methanone] | 776 | 664 | 1180 | 7830 | > 10000 |
| CCc1c(F)ccc2cc(O)cc(-c3ncc4c(N5C[C@H]6CC(C(=O)n7ccc(C)n7)C[C@@H]6C5)nc(OC[C@@]56CCCN5C[C@H](F)C6)nc4c3F)c12 [Example 115, ((3aS,6aS)-2-(7-(8-ethyl-7-fluoro-3-hydroxynaphthalen-1-yl)-8-fluoro-2-(((2R,7aS)-2-fluorotetrahydro-1H-pyrrolizin-7a(5H)-yl)methoxy)pyrido[4,3-d]pyrimidin-4-yl)octahydrocyclopenta[c]pyrrol-5-yl)(3-methyl-1H-pyrazol-1-yl)methanone] | 4120 | 1800 | 260 | 2670 | > 10000 |
| CCc1c(F)ccc2cc(O)cc(-c3ncc4c(N5C[C@H]6CC(C(=O)n7ccc(C)n7)C[C@H]6C5)nc(OC[C@@]56CCCN5C[C@H](F)C6)nc4c3F)c12 (stereo partly drawn) [Example 116, ((3aR,6aS)-2-(7-(8-ethyl-7-fluoro-3-hydroxynaphthalen-1-yl)-8-fluoro-2-(((2R,7aS)-2-fluorotetrahydro-1H-pyrrolizin-7a(5H)-yl)methoxy)pyrido[4,3-d]pyrimidin-4-yl)octahydrocyclopenta[c]pyrrol-5-yl)(3-methyl-1H-pyrazol-1-yl)methanone] | 111 | 11 | 3480 | 4440 | 35 |
| CCc1c(F)ccc2cc(O)cc(-c3ncc4c(N5CCCC6CC6(C(=O)n6ccc(C)n6)CC5)nc(OC[C@@]56CCCN5C[C@H](F)C6)nc4c3F)c12 (stereo partly drawn) [Example 117, (4-(7-(8-ethyl-7-fluoro-3-hydroxynaphthalen-1-yl)-8-fluoro-2-(((2R,7aS)-2-fluorotetrahydro-1H-pyrrolizin-7a(5H)-yl)methoxy)pyrido[4,3-d]pyrimidin-4-yl)-4-azabicyclo[6.1.0]nonan-1-yl)(3-methyl-1H-pyrazol-1-yl)methanone] | 129 | 158 | 68 | 333 | 4050 |
| CCc1c(F)ccc2cc(O)cc(-c3ncc4c(N5C[C@@H]6[C@H](C5)[C@H]6C(=O)n5ccc(C)n5)nc(OC[C@@]56CCCN5C[C@H](F)C6)nc4c3F)c12 [Example 118, ((1R,5S,6S)-3-(7-(8-ethyl-7-fluoro-3-hydroxynaphthalen-1-yl)-8-fluoro-2-(((2R,7aS)-2-fluorotetrahydro-1H-pyrrolizin-7a(5H)-yl)methoxy)pyrido[4,3-d]pyrimidin-4-yl)-3-azabicyclo[3.1.0]hexan-6-yl)(3-methyl-1H-pyrazol-1-yl)methanone] | 591 | 437 | 873 | 5750 | 7840 |

Now from value to compound:

| IC50 [1] [nM] | IC50 [2] [nM] | IC50 [3] [nM] | IC50 [4] [nM] | IC50 [5] [nM] | SMILES |
| --- | --- | --- | --- | --- | --- |
| 171 | 183 | 402 | > 10000 | > 10000 | CCc1c(F)ccc2cc(O)cc(-c3ncc4c(N5CC(C(=O)n6ccc(C)n6)C6(CC6)C5)nc(OC[C@@]56CCCN5C[C@H](F)C6)nc4c3F)c12 (stereo partly drawn) [Example 119, (5-(7-(8-ethyl-7-fluoro-3-hydroxynaphthalen-1-yl)-8-fluoro-2-(((2R,7aS)-2-fluorotetrahydro-1H-pyrrolizin-7a(5H)-yl)methoxy)pyrido[4,3-d]pyrimidin-4-yl)-5-azaspiro[2.4]heptan-7-yl)(3-methyl-1H-pyrazol-1-yl)methanone] |
| 142 | 186 | 1210 | 5380 | 229 | CCc1c(F)ccc2cc(O)cc(-c3ncc4c(N5CC6C(CC(=O)n7ccc(C)n7)C6C5)nc(OC[C@@]56CCCN5C[C@H](F)C6)nc4c3F)c12 (stereo partly drawn) [Example 120, 2-(3-(7-(8-ethyl-7-fluoro-3-hydroxynaphthalen-1-yl)-8-fluoro-2-(((2R,7aS)-2-fluorotetrahydro-1H-pyrrolizin-7a(5H)-yl)methoxy)pyrido[4,3-d]pyrimidin-4-yl)-3-azabicyclo[3.1.0]hexan-6-yl)-1-(3-methyl-1H-pyrazol-1-yl) ethan-1-one] |
| 9 | 5 | 19 | 342 | 38 | CCc1c(F)ccc2cc(O)cc(-c3ncc4c(NCCC(=O)n5ccc(C)n5)nc(OC[C@@]56CCCN5C[C@H](F)C6)nc4c3F)c12 [Example 122, 3-((7-(8-ethyl-7-fluoro-3-hydroxynaphthalen-1-yl)-8-fluoro-2-(((2R,7aS)-2-fluorotetrahydro-1H-pyrrolizin-7a(5H)-yl)methoxy)pyrido[4,3-d]pyrimidin-4-yl)amino)-1-(3-methyl-1H-pyrazol-1-yl) propan-1-one] |
| 59 | 46 | 21 | 187 | 1840 | Cc1ccn(C(=O)C2CCCN(c3nc(OC[C@@]45CCCN4C[C@H](F)C5)nc4c(F)c(-c5ccc(F)c6sc(N)c(C#N)c56)c(Cl)cc34)CCC2)n1 [Example 134, 2-amino-4-(6-chloro-8-fluoro-2-(((2R,7aS)-2-fluorotetrahydro-1H-pyrrolizin-7a(5H)-yl)methoxy)-4-(5-(3-methyl-1H-pyrazole-1-carbonyl)azocan-1-yl)quinazolin-7-yl)-7-fluorobenzo[b]thiophene-3-carbonitrile] |
| 9 | 6 | 11 | 83 | 6 | Cc1ccn(C(=O)C2CCN(c3nc(OC[C@@]45CCCN4C/C(=C\F)C5)nc4c(F)c(-c5ccc(F)c6sc(N)c(C#N)c56)c(Cl)cc34)CC2)n1 [Example 135, 2-amino-4-(6-chloro-8-fluoro-2-(((S,Z)-2-(fluoromethylene)tetrahydro-1H-pyrrolizin-7a(5H)-yl)methoxy)-4-(4-(3-methyl-1H-pyrazole-1-carbonyl)piperidin-1-yl)quinazolin-7-yl)-7-fluorobenzo[b]thiophene-3-carbonitrile] |
| 16 | 17 | 23 | 13 | 249 | Cc1ccn(C(=O)C2CCCCN(c3nc(OC[C@@]45CCCN4C[C@H](F)C5)nc4c(F)c(-c5ccc(F)c6sc(N)c(C#N)c56)c(Cl)cc34)C2)n1 (stereo partly drawn) [Example 136, 2-amino-4-(6-chloro-8-fluoro-2-(((2R,7aS)-2-fluorotetrahydro-1H-pyrrolizin-7a(5H)-yl)methoxy)-4-(3-(3-methyl-1H-pyrazole-1-carbonyl)azepan-1-yl)quinazolin-7-yl)-7-fluorobenzo[b]thiophene-3-carbonitrile] |
| 13 | 10 | 44 | 142 | 29 | Cc1ccn(C(=O)C2CCCCN(c3nc(OC[C@@]45CCCN4C[C@H](F)C5)nc4c(F)c(-c5ccc(F)c6sc(N)c(C#N)c56)c(Cl)cc34)CC2)n1 (stereo partly drawn) [Example 137, 2-amino-4-(6-chloro-8-fluoro-2-(((2R,7aS)-2-fluorotetrahydro-1H-pyrrolizin-7a(5H)-yl)methoxy)-4-(4-(3-methyl-1H-pyrazole-1-carbonyl)azocan-1-yl)quinazolin-7-yl)-7-fluorobenzo[b]thiophene-3-carbonitrile] |
